{"source": "paper PMC3634512", "about": "“Inhibition of Human Transthyretin Aggregation by Non-Steroidal Anti-Inflammatory Compounds: A Structural and Thermodynamic Analysis” (International Journal of Molecular Sciences, 2013)", "key": {"[1]": {"molecular_target": "T1, Transthyretin (L55P variant) (Homo sapiens, UniProt P02766, L75P)", "T1 construct": "gene TTR; L55P TTR homotetramer", "experiment": "ANS displacement from the hormone binding site (apparent Kd)"}, "Transthyretin (WT-TTR)": {"molecular_target": "T2, Transthyretin (WT-TTR) (Homo sapiens, UniProt P02766)", "T2 construct": "WT-TTR homotetramer", "experiment": "crystal structure (soaked crystals); ANS displacement (apparent Kd)", "assay_type": "binding"}}, "data": [{"compound": "Cc1ccc(Nc2c(F)cccc2Cl)c(CC(=O)O)c1", "note": "[LUM, lumiracoxib]", "values": [{"measurement": "Kd", "setting": "[1]", "result": 1700, "unit": "nM"}, {"measurement": "Kd", "setting": "Transthyretin (WT-TTR)", "result": 1400, "unit": "nM"}]}]}
